Assay results taken from PubChem BioAssay (NCI).
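Method: 48-hour compound exposure of cells in 96-well plates, five concentrations, linear interpolation of endpoints. TGI marks complete inhibition of growth.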

Assays:
Test in all cases: inhibition of tumour cell growth, NCI panel, 48 h
A498 renal = test system: A498 renal
ACHN renal = test system: ACHN renal
CCRF-CEM leukemia = test system: CCRF-CEM leukemia
COLO 205 colon = test system: COLO 205 colon
DMS 114 small cell lung = test system: DMS 114 small cell lung
HCC-2998 colon = test system: HCC-2998 colon
HL-60(TB) leukemia = test system: HL-60(TB) leukemia
HOP-62 NSCLC = test system: HOP-62 NSCLC
HOP-92 NSCLC = test system: HOP-92 NSCLC
HT29 colon = test system: HT29 colon
IGROV1 ovarian = test system: IGROV1 ovarian
K-562 leukemia = test system: K-562 leukemia
KM12 colon = test system: KM12 colon
KM20L2 colon = test system: KM20L2 colon
LXFL 529 NSCLC = test system: LXFL 529 NSCLC
M14 melanoma = test system: M14 melanoma
M19-MEL melanoma = test system: M19-MEL melanoma
MALME-3M melanoma = test system: MALME-3M melanoma
MOLT-4 leukemia = test system: MOLT-4 leukemia
NCI-H23 lung = test system: NCI-H23 lung
NCI-H460 lung = test system: NCI-H460 lung
NCI-H522 lung = test system: NCI-H522 lung
OVCAR-3 ovarian = test system: OVCAR-3 ovarian
OVCAR-4 ovarian = test system: OVCAR-4 ovarian
OVCAR-5 ovarian = test system: OVCAR-5 ovarian
RPMI-8226 leukemia = test system: RPMI-8226 leukemia
SF-268 CNS = test system: SF-268 CNS
SF-295 CNS = test system: SF-295 CNS
SF-539 CNS = test system: SF-539 CNS
SK-MEL-2 melanoma = test system: SK-MEL-2 melanoma
SK-MEL-28 melanoma = test system: SK-MEL-28 melanoma
SK-OV-3 ovarian = test system: SK-OV-3 ovarian
SNB-75 CNS = test system: SNB-75 CNS
SNB-78 CNS = test system: SNB-78 CNS
SR leukemia = test system: SR leukemia
U251 CNS = test system: U251 CNS
UACC-257 melanoma = test system: UACC-257 melanoma
UACC-62 melanoma = test system: UACC-62 melanoma
UO-31 renal = test system: UO-31 renal
786-0 renal = test system: 786-0 renal
A549 NSCLC = test system: A549 NSCLC
CAKI-1 renal = test system: CAKI-1 renal
DLD-1 colon = test system: DLD-1 colon
DMS 273 small cell lung = test system: DMS 273 small cell lung
EKVX NSCLC = test system: EKVX NSCLC
HCT-116 colon = test system: HCT-116 colon
HCT-15 colon = test system: HCT-15 colon
LOX IMVI melanoma = test system: LOX IMVI melanoma
NCI-H226 lung = test system: NCI-H226 lung
OVCAR-8 ovarian = test system: OVCAR-8 ovarian
SK-MEL-5 melanoma = test system: SK-MEL-5 melanoma
SN12C renal = test system: SN12C renal
SNB-19 CNS = test system: SNB-19 CNS
SW-620 colon = test system: SW-620 colon
XF 498 CNS = test system: XF 498 CNS

CCN(CC)CCCC(C)Nc1cc(-c2ccccc2)nc2cc(OC)ccc12 (stereo unspecified)
TGI (A498 renal): 14 µM | TGI (ACHN renal): 29.8 µM | TGI (CCRF-CEM leukemia): 11.4 µM | TGI (COLO 205 colon): 13.4 µM | TGI (DMS 114 small cell lung): 21.8 µM | TGI (HCC-2998 colon): 2.41 µM | TGI (HL-60(TB) leukemia): 7.04 µM | TGI (HOP-62 NSCLC): 19.4 µM | TGI (HOP-92 NSCLC): 11.1 µM | TGI (HT29 colon): 4.83 µM | TGI (IGROV1 ovarian): 41.9 µM | TGI (K-562 leukemia): 5.7 µM | TGI (KM12 colon): 22.3 µM | TGI (KM20L2 colon): 7.89 µM | TGI (LXFL 529 NSCLC): 19.9 µM | TGI (M14 melanoma): 3.52 µM | TGI (M19-MEL melanoma): 27.5 µM | TGI (MALME-3M melanoma): 22.4 µM | TGI (MOLT-4 leukemia): 8.24 µM | TGI (NCI-H23 lung): 32.1 µM | TGI (NCI-H460 lung): 14.7 µM | TGI (NCI-H522 lung): 19.9 µM | TGI (OVCAR-3 ovarian): 34.5 µM | TGI (OVCAR-4 ovarian): 18.7 µM | TGI (OVCAR-5 ovarian): 7.97 µM | TGI (RPMI-8226 leukemia): 5.77 µM | TGI (SF-268 CNS): 32.9 µM | TGI (SF-295 CNS): 21.1 µM | TGI (SF-539 CNS): 17.7 µM | TGI (SK-MEL-2 melanoma): 26.3 µM | TGI (SK-MEL-28 melanoma): 20.5 µM | TGI (SK-OV-3 ovarian): 37.5 µM | TGI (SNB-75 CNS): 25.9 µM | TGI (SNB-78 CNS): 18 µM | TGI (SR leukemia): 12.1 µM | TGI (U251 CNS): 15.8 µM | TGI (UACC-257 melanoma): 35.6 µM | TGI (UACC-62 melanoma): 36.6 µM | TGI (UO-31 renal): 9.22 µM

N#Cc1c(C[n+]2ccccc2)c2ccccc2oc1=O
TGI (786-0 renal): > 100 µM | TGI (A549 NSCLC): > 100 µM | TGI (ACHN renal): > 100 µM | TGI (CAKI-1 renal): > 100 µM | TGI (CCRF-CEM leukemia): > 100 µM | TGI (COLO 205 colon): > 100 µM | TGI (DLD-1 colon): > 100 µM | TGI (DMS 114 small cell lung): > 100 µM | TGI (DMS 273 small cell lung): > 100 µM | TGI (EKVX NSCLC): > 100 µM | TGI (HCC-2998 colon): > 100 µM | TGI (HCT-116 colon): > 100 µM | TGI (HCT-15 colon): > 100 µM | TGI (HOP-62 NSCLC): > 100 µM | TGI (HT29 colon): > 100 µM | TGI (IGROV1 ovarian): > 100 µM | TGI (K-562 leukemia): > 100 µM | TGI (KM12 colon): > 100 µM | TGI (KM20L2 colon): > 100 µM | TGI (LOX IMVI melanoma): > 100 µM | TGI (LXFL 529 NSCLC): > 100 µM | TGI (M14 melanoma): > 100 µM | TGI (M19-MEL melanoma): > 100 µM | TGI (MALME-3M melanoma): > 100 µM | TGI (MOLT-4 leukemia): > 100 µM | TGI (NCI-H226 lung): > 100 µM | TGI (NCI-H23 lung): > 100 µM | TGI (NCI-H460 lung): > 100 µM | TGI (NCI-H522 lung): > 100 µM | TGI (OVCAR-3 ovarian): > 100 µM | TGI (OVCAR-4 ovarian): > 100 µM | TGI (OVCAR-5 ovarian): > 100 µM | TGI (OVCAR-8 ovarian): > 100 µM | TGI (RPMI-8226 leukemia): > 100 µM | TGI (SF-268 CNS): > 100 µM | TGI (SF-295 CNS): > 100 µM | TGI (SF-539 CNS): > 100 µM | TGI (SK-MEL-2 melanoma): > 100 µM | TGI (SK-MEL-28 melanoma): > 100 µM | TGI (SK-MEL-5 melanoma): > 100 µM | TGI (SK-OV-3 ovarian): > 100 µM | TGI (SN12C renal): > 100 µM | TGI (SNB-19 CNS): > 100 µM | TGI (SNB-75 CNS): > 100 µM | TGI (SNB-78 CNS): > 100 µM | TGI (SR leukemia): > 100 µM | TGI (SW-620 colon): > 100 µM | TGI (U251 CNS): > 100 µM | TGI (UACC-257 melanoma): > 100 µM | TGI (UACC-62 melanoma): > 100 µM | TGI (UO-31 renal): > 100 µM | TGI (XF 498 CNS): > 100 µM
